Experimental data published in ChEMBL document CHEMBL4138123, “Design, synthesis and biological evaluation of novel pyrazolochalcones as potential modulators of PI3K/Akt/mTOR pathway and inducers of apoptosis in breast cancer cells” (Eur J Med Chem, 2017).

Tests used:
Format in all cases: functional
NCI-H23 [1] = assay: Cytotoxicity against human NCI-H23 cells assessed as growth inhibition after 48 hrs by sulforhodamine B assay; settings: NCI-H23, 48 h; for CC50: read-out: LC50 (the source's name)
SF-268 = assay: Cytotoxicity against human SF268 cells assessed as growth inhibition after 48 hrs by sulforhodamine B assay; settings: SF-268, 48 h; for CC50: read-out: LC50 (the source's name)
SK-MEL-5 [2] = assay: Cytotoxicity against human SK-MEL-5 cells assessed as growth inhibition after 48 hrs by sulforhodamine B assay; settings: SK-MEL-5, 48 h
SK-OV-3 = assay: Cytotoxicity against human SKOV3 cells assessed as growth inhibition after 48 hrs by sulforhodamine B assay; settings: SK-OV-3, 48 h
SN12C = assay: Cytotoxicity against human SN12C cells assessed as growth inhibition after 48 hrs by sulforhodamine B assay
SK-MEL-5 [3] = assay: Cytotoxicity against human SK-MEL-5 cells assessed as cell growth at 0.01 uM after 48 hrs by sulforhodamine B assay relative to control; settings: SK-MEL-5, 48 h, read-out: Activity
Malme-3M = assay: Cytotoxicity against human MALME-3M cells assessed as cell growth at 0.01 uM after 48 hrs by sulforhodamine B assay relative to control; settings: read-out: Activity
RPMI-8226 = assay: Cytotoxicity against human RPMI8226 cells assessed as cell growth at 0.01 uM after 48 hrs by sulforhodamine B assay relative to control; settings: RPMI-8226, 48 h, read-out: Activity
MOLT-4 = assay: Cytotoxicity against human MOLT4 cells assessed as cell growth at 0.01 uM after 48 hrs by sulforhodamine B assay relative to control; settings: MOLT-4, 48 h, read-out: Activity
BT-549 = assay: Cytotoxicity against human BT549 cells assessed as cell growth at 0.01 uM after 48 hrs by sulforhodamine B assay relative to control; settings: BT-549, 48 h, read-out: Activity
A549 = assay: Cytotoxicity against human A549/ATCC cells assessed as cell growth at 0.1 uM after 48 hrs by sulforhodamine B assay relative to control; settings: A549, 48 h, read-out: Activity
SW-620 [4] = assay: Cytotoxicity against human SW620 cells assessed as cell growth at 0.1 uM after 48 hrs by sulforhodamine B assay relative to control; settings: SW-620, 48 h, read-out: Activity
M14 = assay: Cytotoxicity against human M14 cells assessed as cell growth at 0.1 uM after 48 hrs by sulforhodamine B assay relative to control; settings: M14, 48 h, read-out: Activity
CAKI-1 = assay: Cytotoxicity against human Caki1 cells assessed as cell growth at 0.1 uM after 48 hrs by sulforhodamine B assay relative to control; settings: CAKI-1, 48 h, read-out: Activity
Hs-578T [5] = assay: Cytotoxicity against human Hs 578T cells assessed as cell growth at 0.1 uM after 48 hrs by sulforhodamine B assay relative to control; settings: read-out: Activity
NCI-H522 = assay: Cytotoxicity against human NCI-H522 cells assessed as cell growth at 1 uM after 48 hrs by sulforhodamine B assay relative to control; settings: NCI-H522, 48 h, read-out: Activity
HCT-15 = assay: Cytotoxicity against human HCT15 cells assessed as cell growth at 1 uM after 48 hrs by sulforhodamine B assay relative to control; settings: HCT-15, 48 h, read-out: Activity
OVCAR-4 [6] = assay: Cytotoxicity against human OVCAR4 cells assessed as cell growth at 1 uM after 48 hrs by sulforhodamine B assay relative to control; settings: OVCAR-4, 48 h, read-out: Activity
A498 = assay: Cytotoxicity against human A498 cells assessed as cell growth at 1 uM after 48 hrs by sulforhodamine B assay relative to control; settings: A498, 48 h, read-out: Activity
TK-10 [7] = assay: Cytotoxicity against human TK10 cells assessed as cell growth at 1 uM after 48 hrs by sulforhodamine B assay relative to control; settings: TK-10, 48 h, read-out: Activity
MDA-MB-231 = assay: Cytotoxicity against human MDA-MB-231 cells assessed as cell growth at 1 uM after 48 hrs by sulforhodamine B assay relative to control; settings: MDA-MB-231, 48 h, read-out: Activity
MDA-MB-468 = assay: Cytotoxicity against human MDA-MB-468 cells assessed as cell growth at 1 uM after 48 hrs by sulforhodamine B assay relative to control; settings: MDA-MB-468, 48 h, read-out: Activity
SR = assay: Cytotoxicity against human SR cells assessed as cell growth at 10 uM after 48 hrs by sulforhodamine B assay relative to control; settings: read-out: Activity
NCI-H322M = assay: Cytotoxicity against human NCI-H322M cells assessed as cell growth at 10 uM after 48 hrs by sulforhodamine B assay relative to control; settings: read-out: Activity
SW-620 [8] = assay: Cytotoxicity against human SW620 cells assessed as cell growth at 10 uM after 48 hrs by sulforhodamine B assay relative to control; settings: SW-620, 48 h, read-out: Activity
MDA-MB-435 = assay: Cytotoxicity against human MDA-MB-435 cells assessed as cell growth at 10 uM after 48 hrs by sulforhodamine B assay relative to control; settings: MDA-MB-435, 48 h, read-out: Activity
UACC-62 = assay: Cytotoxicity against human UACC62 cells assessed as cell growth at 10 uM after 48 hrs by sulforhodamine B assay relative to control; settings: UACC-62, 48 h, read-out: Activity
Hs-578T [9] = assay: Cytotoxicity against human Hs 578T cells assessed as cell growth at 10 uM after 48 hrs by sulforhodamine B assay relative to control; settings: read-out: Activity
CCRF-CEM = assay: Cytotoxicity against human CCRF-CEM cells assessed as cell growth at 100 uM after 48 hrs by sulforhodamine B assay relative to control; settings: read-out: Activity
NCI-H226 = assay: Cytotoxicity against human NCI-H226 cells assessed as cell growth at 100 uM after 48 hrs by sulforhodamine B assay relative to control; settings: NCI-H226, 48 h, read-out: Activity
NCI-H23 [10] = assay: Cytotoxicity against human NCI-H23 cells assessed as cell growth at 100 uM after 48 hrs by sulforhodamine B assay relative to control; settings: NCI-H23, 48 h, read-out: Activity
HCT-116 = assay: Cytotoxicity against human HCT116 cells assessed as cell growth at 100 uM after 48 hrs by sulforhodamine B assay relative to control; settings: HCT-116, 48 h, read-out: Activity
OVCAR-4 [11] = assay: Cytotoxicity against human OVCAR4 cells assessed as cell growth at 100 uM after 48 hrs by sulforhodamine B assay relative to control; settings: OVCAR-4, 48 h, read-out: Activity
NCI/ADR-RES = assay: Cytotoxicity against human NCI/ADR-RES cells assessed as cell growth at 100 uM after 48 hrs by sulforhodamine B assay relative to control; settings: read-out: Activity
TK-10 [12] = assay: Cytotoxicity against human TK10 cells assessed as cell growth at 100 uM after 48 hrs by sulforhodamine B assay relative to control; settings: TK-10, 48 h, read-out: Activity

Compound COc1ccc(C(=O)/C=C/c2cc(-c3cc(OC)c(OC)c(OC)c3)n[nH]2)cc1OC has a TGI (NCI-H23 [1]) of 5.24 µM, a CC50 (NCI-H23 [1]) of 22.7 µM and a TGI (SF-268) of 3.96 µM. The CC50 (SF-268) was 8.59 µM, the LC50 (concentration killing 50% of cells) (SK-MEL-5 [2]) was 5.59 µM and the TGI (SK-MEL-5 [2]) was 3.03 µM. For the same compound, the LC50 (SK-OV-3) was 27.6 µM, the TGI (SK-OV-3) was 7.82 µM and the LC50 (SN12C) was 6.37 µM. The TGI (SN12C) was 3.13 µM, the growth at 0.01 µM (SK-MEL-5 [3]) was 97% and the growth at 0.01 µM (Malme-3M) was 95%. It also gave a growth at 0.01 µM (RPMI-8226) of 94%, a growth at 0.01 µM (MOLT-4) of 102% and a growth at 0.01 µM (BT-549) of 95%. It also gave a growth at 0.1 µM (A549) of 98%, a growth at 0.1 µM (SW-620 [4]) of 99% and a growth at 0.1 µM (M14) of 98%. For the same compound, the growth at 0.1 µM (CAKI-1) was 99%, the growth at 0.1 µM (Hs-578T [5]) was 99% and the growth at 1 µM (NCI-H522) was -63%. The growth at 1 µM (HCT-15) was 65%, the growth at 1 µM (OVCAR-4 [6]) was 70% and the growth at 1 µM (A498) was 78%. For the same compound, the growth at 1 µM (TK-10 [7]) was 71%, the growth at 1 µM (MDA-MB-231) was 77% and the growth at 1 µM (MDA-MB-468) was 45%. The growth at 10 µM (SR) was 2%, the growth at 10 µM (NCI-H322M) was -96% and the growth at 10 µM (SW-620 [8]) was -77%. It also gave a growth at 10 µM (MDA-MB-435) of -92%, a growth at 10 µM (UACC-62) of -92% and a growth at 10 µM (Hs-578T [9]) of -9%. It also gave a growth at 100 µM (CCRF-CEM) of -15%, a growth at 100 µM (NCI-H226) of -49% and a growth at 100 µM (NCI-H23 [10]) of -75%. For the same compound, the growth at 100 µM (HCT-116) was -13%, the growth at 100 µM (OVCAR-4 [11]) was -82% and the growth at 100 µM (NCI/ADR-RES) was -40%. For the same compound, the growth at 100 µM (TK-10 [12]) was -99%.

COc1ccc(-c2cc(/C=C/C(=O)c3ccc(OC)c(OC)c3)[nH]n2)cc1 gave a GI50 (NCI-H23 [1]) of 2.47 µM, a TGI (NCI-H23 [1]) of 6.33 µM and a CC50 (NCI-H23 [1]) of 34.1 µM. For the same compound, the GI50 (SF-268) was 1.94 µM, the TGI (SF-268) was 4.82 µM and the CC50 (SF-268) was 27.3 µM. It also gave a GI50 (SK-MEL-5 [2]) of 1.77 µM, an LC50 (concentration killing 50% of cells) (SK-MEL-5 [2]) of 7.83 µM and a TGI (SK-MEL-5 [2]) of 3.72 µM. For the same compound, the GI50 (SK-OV-3) was 5.56 µM, the LC50 (SK-OV-3) was 43.4 µM and the TGI (SK-OV-3) was 17.1 µM. For the same compound, the GI50 (SN12C) was 1.64 µM, the LC50 (SN12C) was 8.73 µM and the TGI (SN12C) was 3.78 µM. It also gave a growth at 0.01 µM (SK-MEL-5 [3]) of 90%, a growth at 0.01 µM (Malme-3M) of 89% and a growth at 0.01 µM (RPMI-8226) of 106%. The growth at 0.01 µM (MOLT-4) was 105%, the growth at 0.01 µM (BT-549) was 100% and the growth at 0.1 µM (A549) was 90%. It also gave a growth at 0.1 µM (SW-620 [4]) of 99%, a growth at 0.1 µM (M14) of 105% and a growth at 0.1 µM (CAKI-1) of 96%. For the same compound, the growth at 0.1 µM (Hs-578T [5]) was 92%, the growth at 1 µM (NCI-H522) was 11% and the growth at 1 µM (HCT-15) was 65%. It also gave a growth at 1 µM (OVCAR-4 [6]) of 39%, a growth at 1 µM (A498) of 69% and a growth at 1 µM (TK-10 [7]) of 103%. It also gave a growth at 1 µM (MDA-MB-231) of 79%, a growth at 1 µM (MDA-MB-468) of 61% and a growth at 10 µM (SR) of -29%. It also gave a growth at 10 µM (NCI-H322M) of -32%, a growth at 10 µM (SW-620 [8]) of -52% and a growth at 10 µM (MDA-MB-435) of -64%. For the same compound, the growth at 10 µM (UACC-62) was -77%, the growth at 10 µM (Hs-578T [9]) was 23% and the growth at 100 µM (CCRF-CEM) was -47%. For the same compound, the growth at 100 µM (NCI-H226) was -43%, the growth at 100 µM (NCI-H23 [10]) was -73% and the growth at 100 µM (HCT-116) was -100%. It also gave a growth at 100 µM (OVCAR-4 [11]) of -77%, a growth at 100 µM (NCI/ADR-RES) of -22% and a growth at 100 µM (TK-10 [12]) of -98%.
